From ChEMBL document CHEMBL1201862, “PubChem BioAssay data set” (2004)
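Where inhibition never reached the appropriate level, the endpoint shown equals the highest concentration tested. Otherwise, values were interpolated linearly from a five-concentration, 48-hour dose response in 96-well plates. GI50 = concentration required for 50% inhibition of growth.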 Active and inactive are the calls of the source. No stated cut-off is given here; in the data, active = GI50 up to about 1.1 µM and inactive = higher.

Assays:
Experiment in all cases: NCI tumour cell line growth inhibition, 48 h
HL-60 = tested on: HL-60
UO-31 = tested on: UO-31
ACHN = tested on: ACHN
SF-295 = tested on: SF-295
SN12C = tested on: SN12C
HCC 2998 = tested on: HCC 2998
BT-549 = tested on: BT-549
LOX IMVI = tested on: LOX IMVI
SK-MEL-2 = tested on: SK-MEL-2
MDA-MB-435 = tested on: MDA-MB-435
COLO 205 = tested on: COLO 205
K562 = tested on: K562
A498 = tested on: A498
M14 = tested on: M14
UACC-62 = tested on: UACC-62
SK-MEL-28 = tested on: SK-MEL-28
TK-10 = tested on: TK-10
Hs-578T = tested on: Hs-578T
Malme-3M = tested on: Malme-3M
MOLT-4 = tested on: MOLT-4
SR = tested on: SR
SK-OV-3 = tested on: SK-OV-3
CCRF-CEM = tested on: CCRF-CEM
RXF 393 = tested on: RXF 393
NCI-H23 = tested on: NCI-H23
SNB-19 = tested on: SNB-19
OVCAR-3 = tested on: OVCAR-3
KM12 = tested on: KM12
HOP-62 = tested on: HOP-62
DU-145 = tested on: DU-145
SF-268 = tested on: SF-268
786-0 = tested on: 786-0
SK-MEL-5 = tested on: SK-MEL-5
NCI-H226 = tested on: NCI-H226
HOP-92 = tested on: HOP-92
RPMI-8226 = tested on: RPMI-8226
HCT-116 = tested on: HCT-116
PC-3 = tested on: PC-3
IGROV-1 = tested on: IGROV-1
HCT-15 = tested on: HCT-15
MDA-MB-231 = tested on: MDA-MB-231
NCI-H522 = tested on: NCI-H522
CAKI-1 = tested on: CAKI-1
A549 = tested on: A549
T47D = tested on: T47D
UACC-257 = tested on: UACC-257
NCI-H460 = tested on: NCI-H460
SNB-75 = tested on: SNB-75
MDA-N = tested on: MDA-N
OVCAR-8 = tested on: OVCAR-8
OVCAR-4 = tested on: OVCAR-4
HT-29 = tested on: HT-29
SW-620 = tested on: SW-620
OVCAR-5 = tested on: OVCAR-5
SF-539 = tested on: SF-539
MCF7 = tested on: MCF7
U-251 = tested on: U-251
EKVX = tested on: EKVX
NCI/ADR-RES = tested on: NCI/ADR-RES

CSC1(SC2=NCCN2)SC2(NCCN2)S1
GI50 (HL-60): 21 µM (inactive)
GI50 (UO-31): 17.3 µM (inactive)
GI50 (ACHN): 19 µM (inactive)
GI50 (SF-295): 27.8 µM (inactive)
GI50 (SN12C): 20.7 µM (inactive)
GI50 (HCC 2998): 15.5 µM (inactive)
GI50 (BT-549): 21.4 µM (inactive)
GI50 (LOX IMVI): 10.5 µM (inactive)
GI50 (SK-MEL-2): 19.2 µM (inactive)
GI50 (MDA-MB-435): 15.4 µM (inactive)
GI50 (COLO 205): 21.3 µM (inactive)
GI50 (K562): 12.5 µM (inactive)
GI50 (A498): 12.6 µM (inactive)
GI50 (M14): 21.3 µM (inactive)
GI50 (UACC-62): 16.9 µM (inactive)
GI50 (SK-MEL-28): 20.2 µM (inactive)
GI50 (TK-10): 6.34 µM (inactive)
GI50 (Hs-578T): 24.3 µM (inactive)
GI50 (Malme-3M): 17.6 µM (inactive)
GI50 (MOLT-4): 10.8 µM (inactive)
GI50 (SR): 5.7 µM (inactive)
GI50 (SK-OV-3): 21.6 µM (inactive)
GI50 (CCRF-CEM): 1.21 µM (inactive)
GI50 (RXF 393): 7.53 µM (inactive)
GI50 (NCI-H23): 16.3 µM (inactive)
GI50 (SNB-19): 20.3 µM (inactive)
GI50 (OVCAR-3): 15.8 µM (inactive)
GI50 (KM12): 2.3 µM (inactive)
GI50 (HOP-62): 17.5 µM (inactive)
GI50 (DU-145): 14.8 µM (inactive)
GI50 (SF-268): 18.2 µM (inactive)
GI50 (786-0): 3.86 µM (inactive)
GI50 (SK-MEL-5): 18.9 µM (inactive)
GI50 (NCI-H226): 27.2 µM (inactive)
GI50 (HOP-92): 13.5 µM (inactive)
GI50 (RPMI-8226): 2.77 µM (inactive)
GI50 (HCT-116): 17 µM (inactive)
GI50 (PC-3): 18.5 µM (inactive)
GI50 (IGROV-1): 18.6 µM (inactive)
GI50 (HCT-15): 17.7 µM
GI50 (MDA-MB-231): 21.1 µM (inactive)
GI50 (NCI-H522): 11.8 µM (inactive)
GI50 (CAKI-1): 13.6 µM (inactive)
GI50 (A549): 20.3 µM (inactive)
GI50 (T47D): 0.9 µM (active)
GI50 (UACC-257): 20.6 µM (inactive)
GI50 (NCI-H460): 20.5 µM (inactive)
GI50 (SNB-75): 17.3 µM (inactive)
GI50 (MDA-N): 20.5 µM (inactive)
GI50 (OVCAR-8): 19.7 µM (inactive)
GI50 (OVCAR-4): 20.4 µM (inactive)
GI50 (HT-29): 18.7 µM (inactive)
GI50 (SW-620): 9.04 µM (inactive)
GI50 (OVCAR-5): 19.5 µM (inactive)
GI50 (SF-539): 16.7 µM (inactive)
GI50 (MCF7): 3.18 µM (inactive)
GI50 (U-251): 17.9 µM (inactive)
GI50 (EKVX): 20.3 µM (inactive)
GI50 (NCI/ADR-RES): 31.8 µM (inactive)

C/C=C(/C)C(=O)OC1CC(C)[C@H]2CC(=O)C(C)=C2CC1C(C)(C)OC(C)=O (stereo not given in full)
GI50 (HL-60): 21.4 µM (inactive)
GI50 (UO-31): 23.5 µM (inactive)
GI50 (ACHN): 35.6 µM (inactive)
GI50 (SF-295): 24.7 µM (inactive)
GI50 (SN12C): 42 µM (inactive)
GI50 (HCC 2998): 22.6 µM (inactive)
GI50 (BT-549): 31 µM (inactive)
GI50 (LOX IMVI): 17.9 µM (inactive)
GI50 (SK-MEL-2): 3.95 µM (inactive)
GI50 (MDA-MB-435): 28 µM (inactive)
GI50 (COLO 205): 17.9 µM (inactive)
GI50 (K562): 32.6 µM (inactive)
GI50 (A498): 20.2 µM (inactive)
GI50 (M14): 29.2 µM (inactive)
GI50 (UACC-62): 21.8 µM (inactive)
GI50 (SK-MEL-28): 31 µM (inactive)
GI50 (TK-10): 28.8 µM (inactive)
GI50 (Hs-578T): 35.4 µM (inactive)
GI50 (Malme-3M): 19.3 µM (inactive)
GI50 (MOLT-4): 26.2 µM (inactive)
GI50 (SR): 23 µM (inactive)
GI50 (CCRF-CEM): 25.6 µM (inactive)
GI50 (RXF 393): 22.5 µM (inactive)
GI50 (NCI-H23): 74.8 µM (inactive)
GI50 (SNB-19): 34.4 µM (inactive)
GI50 (OVCAR-3): 20.3 µM (inactive)
GI50 (KM12): 25.9 µM (inactive)
GI50 (HOP-62): 28.9 µM (inactive)
GI50 (DU-145): 81.1 µM (inactive)
GI50 (SF-268): 58.2 µM (inactive)
GI50 (786-0): 43.8 µM (inactive)
GI50 (SK-MEL-5): 15.9 µM (inactive)
GI50 (NCI-H226): 37.4 µM (inactive)
GI50 (HOP-92): 19.6 µM (inactive)
GI50 (RPMI-8226): 22.9 µM (inactive)
GI50 (HCT-116): 19.6 µM (inactive)
GI50 (PC-3): 31.3 µM (inactive)
GI50 (IGROV-1): 53.8 µM (inactive)
GI50 (HCT-15): 19.7 µM
GI50 (MDA-MB-231): 31.7 µM (inactive)
GI50 (NCI-H522): 19.5 µM (inactive)
GI50 (CAKI-1): 37.1 µM (inactive)
GI50 (A549): 30.3 µM (inactive)
GI50 (T47D): 15.4 µM (inactive)
GI50 (UACC-257): 20.9 µM (inactive)
GI50 (NCI-H460): 19.3 µM (inactive)
GI50 (SNB-75): 44.4 µM (inactive)
GI50 (MDA-N): 34.2 µM (inactive)
GI50 (OVCAR-8): 30.8 µM (inactive)
GI50 (OVCAR-4): 22.2 µM (inactive)
GI50 (HT-29): 35.5 µM (inactive)
GI50 (SW-620): 43.7 µM (inactive)
GI50 (OVCAR-5): > 100 µM (inactive)
GI50 (SF-539): 20.7 µM (inactive)
GI50 (MCF7): 40.6 µM (inactive)
GI50 (U-251): 38.1 µM (inactive)
GI50 (EKVX): 39.1 µM (inactive)
GI50 (NCI/ADR-RES): 22.8 µM (inactive)

CNC(=S)N/N=C(\C)c1nc2cccnc2[nH]1
GI50 (HL-60): 17.6 µM (inactive)
GI50 (UO-31): 9.25 µM (inactive)
GI50 (ACHN): 38.9 µM (inactive)
GI50 (SF-295): 30.3 µM (inactive)
GI50 (SN12C): 98.2 µM (inactive)
GI50 (HCC 2998): 19.1 µM (inactive)
GI50 (BT-549): 27.9 µM (inactive)
GI50 (LOX IMVI): 43.6 µM (inactive)
GI50 (SK-MEL-2): > 63.5 µM (inactive)
GI50 (MDA-MB-435): 77.1 µM (inactive)
GI50 (COLO 205): 33.5 µM (inactive)
GI50 (K562): 95.3 µM (inactive)
GI50 (A498): > 100 µM (inactive)
GI50 (M14): 45.2 µM (inactive)
GI50 (UACC-62): 6.34 µM (inactive)
GI50 (SK-MEL-28): 82.6 µM (inactive)
GI50 (TK-10): 32.5 µM (inactive)
GI50 (Hs-578T): > 50 µM (inactive)
GI50 (Malme-3M): > 70.5 µM (inactive)
GI50 (MOLT-4): 31.9 µM (inactive)
GI50 (SR): 28.4 µM (inactive)
GI50 (SK-OV-3): 31.8 µM (inactive)
GI50 (CCRF-CEM): 24.4 µM (inactive)
GI50 (RXF 393): 62.2 µM (inactive)
GI50 (SNB-19): > 53.8 µM (inactive)
GI50 (OVCAR-3): 18.6 µM (inactive)
GI50 (KM12): 46.6 µM (inactive)
GI50 (HOP-62): 25.6 µM (inactive)
GI50 (DU-145): 55.2 µM (inactive)
GI50 (SF-268): 37.7 µM (inactive)
GI50 (786-0): 43.7 µM (inactive)
GI50 (SK-MEL-5): 29.2 µM (inactive)
GI50 (NCI-H226): 38.1 µM (inactive)
GI50 (HOP-92): 20.6 µM (inactive)
GI50 (RPMI-8226): 71.9 µM (inactive)
GI50 (HCT-116): 30 µM (inactive)
GI50 (PC-3): 48.5 µM (inactive)
GI50 (IGROV-1): 62.7 µM (inactive)
GI50 (HCT-15): 29.2 µM
GI50 (MDA-MB-231): 42.7 µM (inactive)
GI50 (NCI-H522): 22.8 µM (inactive)
GI50 (CAKI-1): 33.8 µM (inactive)
GI50 (A549): 31.1 µM (inactive)
GI50 (T47D): 43.5 µM (inactive)
GI50 (UACC-257): 60.8 µM (inactive)
GI50 (NCI-H460): 29.9 µM (inactive)
GI50 (SNB-75): > 70.6 µM (inactive)
GI50 (MDA-N): > 100 µM (inactive)
GI50 (OVCAR-8): 48.9 µM (inactive)
GI50 (OVCAR-4): 4.12 µM (inactive)
GI50 (HT-29): 36.8 µM (inactive)
GI50 (SW-620): 52.8 µM (inactive)
GI50 (OVCAR-5): 30.8 µM (inactive)
GI50 (SF-539): 27.7 µM (inactive)
GI50 (MCF7): 34.3 µM (inactive)
GI50 (U-251): 39.8 µM (inactive)
GI50 (EKVX): 47 µM (inactive)
GI50 (NCI/ADR-RES): 15.3 µM (inactive)
